Marks after values point to notes of the source that are not given here.
Columns and labels:
[1] = pH and particle size of crude cinacalcet emulsions with different oils and phospholipids; type: physicochemical; set-up: unit not given here; conditions: emulsion; STG 20%; 1% Purified Soy Lecithin; after a single autoclaving cycle
[2] = Short-term storage stability of emulsions (drug conc., pH, particle size); type: physicochemical; conditions: for stability in the emulsion formulation: over 12 weeks, 5° C. and 40° C.; for Cinacalcet conc. / D(4, 3) / pH: emulsion
From the text: This Example illustrates the effect of the storage temperature on short-term stability of the formulations of the invention as measured by pH and the size of the droplets. The results of short term stability of cinacalcet at different temperatures and varying TRIS buffer concentrations are presented in Table 8. Cinacalcet was stable in the emulsion formulation over 12 weeks. The pH of the emulsion is lower over time for both placebo and cinacalcet emulsions. The drop in pH is less at lower storage temperature and higher TRIS concentration.
The results of short-term stability of cinacalcet at different temperatures and varying DEA buffer concentrations are presented in Table 9. Cinacalcet was stable in the emulsion formulation over 12 weeks. pH of the emulsion is lower over time for both placebo and cinacalcet emulsion. The drop in pH is less at lower storage temperature and higher DEA concentration.

## C[C@@H](NCCCc1cccc(C(F)(F)F)c1)c1cccc2ccccc12 [Cinacalcet, N-(1-(R)-(1-naphthyl)ethyl]-3-[3-(trifluoromethyl)phenyl]-1-aminopropane]
[1]
  D(4, 3): 0.94^a
[2]; DEA buffered emulsion
  stability in the emulsion formulation: stable
[2]; TRIS buffered emulsion
  stability in the emulsion formulation: stable
[2]; DEA 0.05%, 5° C., 0 weeks
  Cinacalcet conc.: 4.42 mg/mL
  D(4, 3): 0.39 µm
  pH: 8.77
[2]; DEA 0.05%, 5° C., 2 weeks
  Cinacalcet conc.: 4.14 mg/mL
  D(4, 3): 0.39 µm
  pH: 8.64
[2]; DEA 0.05%, 5° C., 4 weeks
  Cinacalcet conc.: 4.35 mg/mL
  D(4, 3): 0.4 µm
  pH: 8.65
[2]; DEA 0.05%, 5° C., 6 weeks
  Cinacalcet conc.: 4.28 mg/mL
  D(4, 3): 0.76 µm
  pH: 8.59
[2]; DEA 0.05%, 5° C., 8 weeks
  Cinacalcet conc.: 4.43 mg/mL
  D(4, 3): 0.4 µm
  pH: 8.67
[2]; DEA 0.05%, 5° C., 12 weeks
  Cinacalcet conc.: 4.29 mg/mL
  D(4, 3): 0.4 µm
  pH: 8.58
[2]; DEA 0.05%, 40° C., 0 weeks
  Cinacalcet conc.: 4.42 mg/mL
  D(4, 3): 0.39 µm
  pH: 8.77
[2]; DEA 0.05%, 40° C., 2 weeks
  Cinacalcet conc.: 4.15 mg/mL
  D(4, 3): 0.39 µm
  pH: 8.46
[2]; DEA 0.05%, 40° C., 4 weeks
  Cinacalcet conc.: 4.30 mg/mL
  D(4, 3): 0.4 µm
  pH: 8.36
[2]; DEA 0.05%, 40° C., 6 weeks
  Cinacalcet conc.: 4.28 mg/mL
  D(4, 3): 0.39 µm
  pH: 8.25
[2]; DEA 0.05%, 40° C., 8 weeks
  Cinacalcet conc.: 4.39 mg/mL
  D(4, 3): 0.43 µm
  pH: 8.29
[2]; DEA 0.05%, 40° C., 12 weeks
  Cinacalcet conc.: 4.31 mg/mL
  D(4, 3): 0.43 µm
  pH: 8.12
[2]; DEA 0.30%, 5° C., 0 weeks
  Cinacalcet conc.: 4.78 mg/mL
  D(4, 3): 0.36 µm
  pH: 9.12
[2]; DEA 0.30%, 5° C., 2 weeks
  Cinacalcet conc.: 4.60 mg/mL
  D(4, 3): 0.35 µm
  pH: 9.07
[2]; DEA 0.30%, 5° C., 4 weeks
  Cinacalcet conc.: 4.67 mg/mL
  D(4, 3): 0.37 µm
  pH: 9.12
[2]; DEA 0.30%, 5° C., 6 weeks
  Cinacalcet conc.: 4.60 mg/mL
  D(4, 3): 0.37 µm
  pH: 9.11
[2]; DEA 0.30%, 5° C., 8 weeks
  Cinacalcet conc.: 4.79 mg/mL
  D(4, 3): 0.37 µm
  pH: 9.15
[2]; DEA 0.30%, 5° C., 12 weeks
  Cinacalcet conc.: 4.66 mg/mL
  D(4, 3): 0.36 µm
[2]; DEA 0.30%, 40° C., 0 weeks
  Cinacalcet conc.: 4.78 mg/mL
  D(4, 3): 0.36 µm
  pH: 9.12
[2]; DEA 0.30%, 40° C., 2 weeks
  Cinacalcet conc.: 4.58 mg/mL
  D(4, 3): 0.36 µm
  pH: 8.98
[2]; DEA 0.30%, 40° C., 4 weeks
  Cinacalcet conc.: 4.73 mg/mL
  D(4, 3): 0.36 µm
  pH: 8.99
[2]; DEA 0.30%, 40° C., 6 weeks
  Cinacalcet conc.: 4.65 mg/mL
  D(4, 3): 0.36 µm
  pH: 8.93
[2]; DEA 0.30%, 40° C., 8 weeks
  Cinacalcet conc.: 4.83 mg/mL
  D(4, 3): 0.37 µm
  pH: 8.95
[2]; DEA 0.30%, 40° C., 12 weeks
  Cinacalcet conc.: 4.71 mg/mL
  D(4, 3): 0.38 µm
[2]; TRIS 5 mM, 5° C., 0 weeks
  Cinacalcet conc.: 4.43 mg/mL
  D(4, 3): 0.31 µm
  pH: 8.80
[2]; TRIS 5 mM, 5° C., 2 weeks
  Cinacalcet conc.: 4.18 mg/mL
  D(4, 3): 0.31 µm
  pH: 8.69
[2]; TRIS 5 mM, 5° C., 4 weeks
  Cinacalcet conc.: 4.38 mg/mL
  D(4, 3): 0.3 µm
  pH: 8.65
[2]; TRIS 5 mM, 5° C., 6 weeks
  Cinacalcet conc.: 4.33 mg/mL
  D(4, 3): 0.3 µm
  pH: 8.59
[2]; TRIS 5 mM, 5° C., 8 weeks
  Cinacalcet conc.: 4.47 mg/mL
  D(4, 3): 0.31 µm
  pH: 8.60
[2]; TRIS 5 mM, 5° C., 12 weeks
  Cinacalcet conc.: 4.32 mg/mL
  D(4, 3): 0.31 µm
  pH: 8.50
[2]; TRIS 5 mM, 40° C., 0 weeks
  Cinacalcet conc.: 4.43 mg/mL
  D(4, 3): 0.31 µm
  pH: 8.80
[2]; TRIS 5 mM, 40° C., 2 weeks
  Cinacalcet conc.: 4.17 mg/mL
  D(4, 3): 0.31 µm
  pH: 8.41
[2]; TRIS 5 mM, 40° C., 4 weeks
  Cinacalcet conc.: 4.36 mg/mL
  D(4, 3): 0.31 µm
  pH: 8.29
[2]; TRIS 5 mM, 40° C., 6 weeks
  Cinacalcet conc.: 4.29 mg/mL
  D(4, 3): 0.47 µm
  pH: 8.20
[2]; TRIS 5 mM, 40° C., 8 weeks
  Cinacalcet conc.: 4.45 mg/mL
  D(4, 3): 0.48 µm
  pH: 8.11
[2]; TRIS 5 mM, 40° C., 12 weeks
  Cinacalcet conc.: 4.33 mg/mL
  D(4, 3): 0.36 µm
  pH: 8.12
[2]; TRIS 20 mM, 5° C., 0 weeks
  Cinacalcet conc.: 4.92 mg/mL
  D(4, 3): 0.29 µm
  pH: 9.13
[2]; TRIS 20 mM, 5° C., 2 weeks
  Cinacalcet conc.: 4.47 mg/mL
  D(4, 3): 0.29 µm
  pH: 8.98
[2]; TRIS 20 mM, 5° C., 4 weeks
  Cinacalcet conc.: 4.79 mg/mL
  D(4, 3): 0.29 µm
  pH: 8.99
[2]; TRIS 20 mM, 5° C., 6 weeks
  Cinacalcet conc.: 4.72 mg/mL
  D(4, 3): 0.28 µm
  pH: 8.87
[2]; TRIS 20 mM, 5° C., 8 weeks
  Cinacalcet conc.: 4.91 mg/mL
  D(4, 3): 0.29 µm
  pH: 9.02
[2]; TRIS 20 mM, 5° C., 12 weeks
  Cinacalcet conc.: 4.76 mg/mL
  D(4, 3): 0.29 µm
  pH: 8.93
[2]; TRIS 20 mM, 40° C., 0 weeks
  Cinacalcet conc.: 4.92 mg/mL
  D(4, 3): 0.29 µm
  pH: 9.13
[2]; TRIS 20 mM, 40° C., 2 weeks
  Cinacalcet conc.: 4.48 mg/mL
  D(4, 3): 0.29 µm
  pH: 8.82
[2]; TRIS 20 mM, 40° C., 4 weeks
  Cinacalcet conc.: 4.75 mg/mL
  D(4, 3): 0.29 µm
  pH: 8.79
[2]; TRIS 20 mM, 40° C., 6 weeks
  Cinacalcet conc.: 4.73 mg/mL
  D(4, 3): 0.29 µm
  pH: 8.75
[2]; TRIS 20 mM, 40° C., 8 weeks
  Cinacalcet conc.: 4.96 mg/mL
  D(4, 3): 0.29 µm
  pH: 8.76
[2]; TRIS 20 mM, 40° C., 12 weeks
  Cinacalcet conc.: 4.82 mg/mL
  D(4, 3): 0.29 µm
  pH: 8.63

Reference: US8779004B2, “Stable emulsion formulations” (Amgen, Inc., priority 2006, dated 2014)
